Key:
[1] = biological target: T1, type-I synthase (Ricinus communis, UniProt Q41135); experiment: biochemical; design: species or system R. communis
T1 construct: mature plastid protein
T1 sequence (Q41135 43-469): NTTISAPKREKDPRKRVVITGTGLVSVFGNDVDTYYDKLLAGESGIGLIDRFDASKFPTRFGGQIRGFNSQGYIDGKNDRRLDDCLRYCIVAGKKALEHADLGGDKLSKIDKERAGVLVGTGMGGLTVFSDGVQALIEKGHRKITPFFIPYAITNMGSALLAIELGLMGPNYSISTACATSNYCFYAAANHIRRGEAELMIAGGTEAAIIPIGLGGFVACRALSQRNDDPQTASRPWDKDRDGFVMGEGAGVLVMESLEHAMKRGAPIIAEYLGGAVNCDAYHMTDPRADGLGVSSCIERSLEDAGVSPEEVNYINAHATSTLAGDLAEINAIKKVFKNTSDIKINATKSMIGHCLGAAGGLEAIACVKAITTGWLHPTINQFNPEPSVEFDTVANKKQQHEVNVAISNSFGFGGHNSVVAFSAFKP

[2] = biological target: T2, type-II synthase (Ricinus communis, UniProt Q41134); type: biochemical, R. communis
T2 construct: mature plastid protein
T2 sequence (Q41134 117-535): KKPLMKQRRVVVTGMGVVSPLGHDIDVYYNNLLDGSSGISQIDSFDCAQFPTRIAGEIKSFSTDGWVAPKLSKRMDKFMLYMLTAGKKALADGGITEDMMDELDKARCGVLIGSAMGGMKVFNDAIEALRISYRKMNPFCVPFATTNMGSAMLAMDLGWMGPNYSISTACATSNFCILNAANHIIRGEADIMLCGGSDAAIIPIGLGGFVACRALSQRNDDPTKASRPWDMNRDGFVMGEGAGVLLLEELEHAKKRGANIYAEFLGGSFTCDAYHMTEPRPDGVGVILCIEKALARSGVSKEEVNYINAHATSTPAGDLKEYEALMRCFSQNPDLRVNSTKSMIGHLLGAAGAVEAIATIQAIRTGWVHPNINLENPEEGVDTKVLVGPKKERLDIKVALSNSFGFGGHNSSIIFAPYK

[3] = test system: T3, synthase I; experiment: Cerulenin sensitivity of cellulose phosphate flow-through fraction; type: biochemical, S. oleracea; details: 0.25 h, 5 μM cerulenin, 15 minutes, room temperature, read-out: reduction of decanoyl-ACP activity
T3 construct: from tissue; host or cells: S. oleracea leaf, cellulose phosphate flow-through
Description: (§1) Each enzyme source is incubated with 5 μM cerulenin for 15 minutes at room temperature before being assayed with each of the acyl-ACP substrates. After incubation with cerulenin, the decanoyl-ACP activity is reduced 99% in the cellulose phosphate flow-through fraction and only 69% in the synthase II fraction. The palmitoyl-ACP activity in the synthase II fraction is not inhibited by the cerulenin treatment.

[4] = test system: synthase II; experiment: Cerulenin sensitivity of synthase II fraction from cellulose phosphate; type: biochemical, S. oleracea; details: 5 μM cerulenin, 15 minutes, room temperature
Description: as §1

[5] = biological target: T4, Synthase I (Arabidopsis thaliana, UniProt P52410); experiment: Inhibition with cerulenin; type: biochemical
T4 sequence (P52410 47-473): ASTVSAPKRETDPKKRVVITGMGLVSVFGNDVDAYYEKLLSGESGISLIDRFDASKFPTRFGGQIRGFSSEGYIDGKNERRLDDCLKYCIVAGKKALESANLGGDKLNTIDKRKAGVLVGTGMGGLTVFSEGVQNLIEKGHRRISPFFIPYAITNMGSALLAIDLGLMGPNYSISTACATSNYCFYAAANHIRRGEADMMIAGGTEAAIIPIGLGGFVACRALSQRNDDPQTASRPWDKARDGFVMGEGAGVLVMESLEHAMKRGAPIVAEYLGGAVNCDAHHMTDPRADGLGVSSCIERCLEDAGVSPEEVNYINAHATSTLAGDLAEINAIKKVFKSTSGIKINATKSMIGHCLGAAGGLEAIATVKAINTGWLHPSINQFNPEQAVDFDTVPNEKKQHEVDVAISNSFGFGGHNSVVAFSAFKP
Text: (§2) Other plant synthases may also find applicability by this invention, including synthase III type activities. Differences between synthases I, II, and III are also observed in inhibition with cerulenin. […] In FIG. 1, a time course assay of cerulenin effects on synthase I and synthase II activities is provided.

[6] = biological target: T5, synthase II (Arabidopsis thaliana, UniProt Q9C9P4); experiment: Inhibition with cerulenin; type: biochemical
T5 sequence (Q9C9P4 104-541): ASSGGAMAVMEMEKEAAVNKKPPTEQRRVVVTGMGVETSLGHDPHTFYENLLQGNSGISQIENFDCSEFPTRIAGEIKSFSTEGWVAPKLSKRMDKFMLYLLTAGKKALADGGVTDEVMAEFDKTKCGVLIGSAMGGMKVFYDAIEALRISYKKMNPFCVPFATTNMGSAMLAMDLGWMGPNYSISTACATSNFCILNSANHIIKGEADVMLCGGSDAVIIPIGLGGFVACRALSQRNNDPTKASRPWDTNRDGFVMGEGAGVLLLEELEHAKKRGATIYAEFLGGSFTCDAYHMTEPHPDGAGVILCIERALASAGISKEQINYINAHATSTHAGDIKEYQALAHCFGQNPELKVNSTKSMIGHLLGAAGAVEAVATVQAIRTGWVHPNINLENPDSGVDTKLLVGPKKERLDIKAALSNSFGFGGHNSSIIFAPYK
Text: as §2

[7] = biological target: T6, synthase III (Arabidopsis thaliana, UniProt P49243); experiment: Inhibition with cerulenin; type: biochemical
T6 sequence (P49243 44-404): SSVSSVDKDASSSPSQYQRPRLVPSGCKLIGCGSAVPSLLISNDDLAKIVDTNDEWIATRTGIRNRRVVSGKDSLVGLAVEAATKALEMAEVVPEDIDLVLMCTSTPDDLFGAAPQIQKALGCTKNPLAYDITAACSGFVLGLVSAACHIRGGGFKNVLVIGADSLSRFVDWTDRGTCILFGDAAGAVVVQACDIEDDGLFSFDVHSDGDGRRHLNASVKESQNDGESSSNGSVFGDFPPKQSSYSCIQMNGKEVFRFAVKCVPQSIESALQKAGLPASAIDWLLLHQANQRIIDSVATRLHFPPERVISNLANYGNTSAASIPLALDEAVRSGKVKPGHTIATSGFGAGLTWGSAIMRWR
Text: as §2

[8] = test system: synthase I; details: cited from earlier work
[9] = test system: synthase II; details: cited from earlier work
[10] = cerulenin concentrations above 50 μM

With `C/C=C/C/C=C/CCC(=O)[C@H]1O[C@H]1C(N)=O` [cerulenin] the “inactivation of type-I synthase” value [1] was “completely inactivated”, the inhibition at 5 µM ([1]; read-out: inhibition of activity with C10:0-ACP) was > 80% and the “sensitivity of activity with C16:0-ACP (type-II synthase) to cerulenin” value [2] was “virtually insensitive”. The inhibition at 5 µM [3] was 99%, the “inhibition of palmitoyl-ACP activity” value [4] was “not inhibited” and the “reduction of decanoyl-ACP activity” value [4] was 69%. For the same compound, the “sensitivity of synthase I to cerulenin” value [5] was “most sensitive”, the “sensitivity of synthase II to cerulenin” value [6] was “less sensitive” and the “sensitivity of synthase III to cerulenin” value [7] was “least sensitive”. For the same compound, the “reaction with active site of synthase I” value ([8]; 5 μM cerulenin) was “reacts readily”, the “reaction with synthase I” value [8, 10] was “react readily” and the “reaction with active site of synthase II” value ([9]; 5 μM cerulenin) was “not synthase II”. For the same compound, the “reaction with synthase II” value [9, 10] was “react readily”.

Reference: US5510255A, “Plant fatty acid synthases” (priority 1993, dated 1996)
